Experiment [1] addresses BRD9 bromodomain (Homo sapiens (Human), UniProt Q9H8M2). Put plainly: BRD9 bromodomain TR-FRET competition binding assay. The following applies: Table 4; competition with biotinylated ligand, 3 nM Flag-BRD9, 90 minutes. The gist of the method:
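TEV-cleaved Flag-BRD9 (P133-K239, 3 nM) competed against 3.75 nM biotinylated ligand, with 7.5 nM APC-streptavidin and 0.2 nM Eu-W1024 anti-FLAG, in HEPES pH 7.4, NaCl, TCEP, Tween-20, BSA. Compounds were serially diluted 3-fold; after 90 min at room temperature the 665/615 nm emission ratio was read.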
(In TR-FRET formats the signal depends on donor and acceptor labels being close together.)

The target of experiment [2] is Nanoluciferase-BRD9 fusion protein (Homo sapiens (Human), UniProt Q9H8M2). Briefly: SYO1 BRD9 NanoLuc degradation assay. In kind it is cell-based. Conditions: Table 5A, SYO-1 cells expressing 3×FLAG-NLuc-BRD9, 6 hours; for DC50: read-out: SYO1 BRD9-NanoLuc degradation IC50. In short, it runs like this:
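Degradation was read as loss of nanoluciferase signal (Nano-Glo) after 6 h compound exposure in a stable SYO-1 line carrying 3×FLAG-NLuc-BRD9 (8000 cells/well). Normalised between DMSO (high) and a 1 μM known BRD9 degrader (low).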

Chain of Nanoluciferase-BRD9 fusion protein (Q9H8M2 whole entry, the tested form may be a part): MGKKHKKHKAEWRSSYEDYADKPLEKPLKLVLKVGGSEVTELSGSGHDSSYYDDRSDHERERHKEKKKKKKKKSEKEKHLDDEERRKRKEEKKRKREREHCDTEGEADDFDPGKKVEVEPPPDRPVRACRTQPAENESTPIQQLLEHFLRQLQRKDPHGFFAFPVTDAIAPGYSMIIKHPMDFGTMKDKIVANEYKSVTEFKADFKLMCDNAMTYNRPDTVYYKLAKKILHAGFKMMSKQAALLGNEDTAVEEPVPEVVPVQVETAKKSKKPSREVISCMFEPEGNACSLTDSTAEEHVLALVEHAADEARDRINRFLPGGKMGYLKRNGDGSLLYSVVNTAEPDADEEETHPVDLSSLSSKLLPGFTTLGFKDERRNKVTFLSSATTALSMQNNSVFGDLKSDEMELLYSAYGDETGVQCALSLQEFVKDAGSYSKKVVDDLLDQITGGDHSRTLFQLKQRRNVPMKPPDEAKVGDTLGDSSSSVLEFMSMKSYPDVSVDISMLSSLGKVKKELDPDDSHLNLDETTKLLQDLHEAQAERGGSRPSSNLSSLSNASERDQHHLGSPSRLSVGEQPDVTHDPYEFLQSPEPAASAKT
Chain of BRD9 bromodomain (Q9H8M2 133-239): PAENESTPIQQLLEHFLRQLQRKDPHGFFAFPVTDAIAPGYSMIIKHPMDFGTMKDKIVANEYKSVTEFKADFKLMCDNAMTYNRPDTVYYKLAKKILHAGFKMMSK

For orientation: IC50 means the point on the concentration scale where inhibition reaches its midpoint. A lower IC50 goes with higher potency. For `COc1cc(-c2cn(C)c(=O)c3cnccc23)cc(OC)c1CN1CCC(COC2CCN(C(=O)CCOCCOc3ccc4c(c3)C(=O)N(C3CCC(=O)NC3=O)C4=O)C2)CC1` (centres unmarked) [Compound D124], the IC50 in experiment [1] and in experiment [2] was < 10 nM in each case.
Regarding `COc1cc(-c2cn(C)c(=O)c3cnccc23)cc(OC)c1CN1CCCC(OCc2cn(CCCOc3ccc4c(c3)C(=O)N(C3CCC(=O)NC3=O)C4=O)nn2)C1` (centres unmarked) [Compound D151], the IC50 in experiment [1] was < 10 nM. The DC50 in experiment [2] was 10 to 100 nM.
On to `COc1cc(-c2cn(C)c(=O)c3cnccc23)cc(OC)c1CN1CCC2(CC1)CN(C(=O)CCCOc1cccc3c1C(=O)N(C1CCC(=O)NC1=O)C3=O)CCO2` (centres unmarked) [Compound D39, 4-[4-(9-[[2,6-dimethoxy-4-(2-methyl-1-oxo-2,7-naphthyridin-4-yl)phenyl]methyl]-1-oxa-4,9-diazaspiro[5.5]undecan-4-yl)-4-oxobutoxy]-2-(2,6-dioxopiperidin-3-yl)isoindole-1,3-dione], for which the IC50 in experiment [1] and in experiment [2] was < 10 nM each time.
Take `COc1cc(-c2cn(C)c(=O)c3cnccc23)cc(OC)c1CN1CC2(CCN(C(=O)CCOCCOc3ccc4c(c3)C(=O)N(C3CCC(=O)NC3=O)C4=O)CC2)C1` (centres unmarked) [Compound D118]: the half-maximal inhibitory concentration (IC50) in experiment [1] is < 10 nM. Also, in experiment [2], the DC50 lay in the range of 10 to 100 nM.
Regarding `COc1cc(-c2cn(C)c(=O)c3cnccc23)cc(OC)c1CN1CCC2(CC1)CN(C(=O)COc1cccc3c1C(=O)N(C1CCC(=O)NC1=O)C3=O)CCO2` (centres unmarked) [Compound D41, 4-[2-(9-[[2,6-dimethoxy-4-(2-methyl-1-oxo-2,7-naphthyridin-4-yl)phenyl]methyl]-1-oxa-4,9-diazaspiro[5.5]undecan-4-yl)-2-oxoethoxy]-2-(2,6-dioxopiperidin-3-yl)isoindole-1,3-dione formic acid], the IC50 in experiment [1] was < 10 nM. Besides, the DC50 in experiment [2] lay within 10 to 100 nM.
In the case of `COc1cc(-c2cn(C)c(=O)c3cnccc23)cc(OC)c1CN(C)CC(=O)NCCCCN1CCOC2(CCN(c3ccc4c(c3)C(=O)N(C3CCC(=O)NC3=O)C4=O)CC2)C1` (centres unmarked) [Compound D73, 2-([[2,6-dimethoxy-4-(2-methyl-1-oxo-2,7-naphthyridin-4-yl)phenyl]methyl](methyl)amino)-N-(4-[9-[2-(2,6-dioxopiperidin-3-yl)-1,3-dioxoisoindol-5-yl]-1-oxa-4,9-diazaspiro[5.5]undecan-4-yl]butyl)acetamide formic acid], the half-inhibitory concentration (IC50) is 10 to 100 nM in experiment [1] and < 10 nM in experiment [2].
Taken in the same sequence, the figures for `COc1cc(-c2cn(C)c(=O)c3cnccc23)cc(OC)c1CN1CCC2CCN(C(=O)CCOCCOc3ccc4c(c3)C(=O)N(C3CCC(=O)NC3=O)C4=O)CC21` (centres unmarked) [Compound D123] were < 10 nM and < 10 nM.
Take `COc1cc(-c2cn(C)c(=O)c3cnccc23)cc(OC)c1CN1CC(CC(=O)NCCCCCCCCNc2cccc3c2C(=O)N(C2CCC(=O)NC2=O)C3=O)C1` (centres unmarked) [Compound D9, 2-(1-[[2,6-dimethoxy-4-(2-methyl-1-oxo-1,2-dihydro-2,7-naphthyridin-4-yl)phenyl]methyl]azetidin-3-yl)-N-(8-[[2-(2,6-dioxopiperidin-3-yl)-1,3-dioxo-2,3-dihydro-1H-isoindol-4-yl]amino]octyl)acetamide formic acid]: the IC50 in experiment [1] and in experiment [2] was < 10 nM in each case.
In the case of `COc1cc(-c2cn(C)c(=O)c3cnccc23)cc(OC)c1CN1CC(S(=O)(=O)NCCCCCNc2ccc3c(c2)C(=O)N(C2CCC(=O)NC2=O)C3=O)C1` (centres unmarked) [Compound D23, 1-[[2,6-dimethoxy-4-(2-methyl-1-oxo-1,2-dihydro-2,7-naphthyridin-4-yl)phenyl]methyl]-N-(5-[[2-(2,6-dioxopiperidin-3-yl)-1,3-dioxo-2,3-dihydro-1H-isoindol-5-yl]amino]pentyl) azetidine-3-sulfonamide formic acid], the IC50 in experiment [1] and in experiment [2] was < 10 nM throughout.
As for `COc1cc(-c2cn(C)c(=O)c3cnccc23)cc(OC)c1CN1CC[C@H]1C(=O)NCCCCCCCCNc1cccc2c1C(=O)N(C1CCC(=O)NC1=O)C2=O` (stereo partly drawn) [Compound D11, (2S)-1-[[2,6-dimethoxy-4-(2-methyl-1-oxo-2,7-naphthyridin-4-yl)phenyl]methyl]-N-(8-[[2-(2,6-dioxopiperidin-3-yl)-1,3-dioxoisoindol-4-yl]amino]octyl)azetidine-2-carboxamide], the IC50 in experiment [1] is 10 to 100 nM; in experiment [2], < 10 nM.
For the compound `COc1cc(-c2cn(C)c(=O)c3cnccc23)cc(OC)c1CN1CC2(C1)CN(C(=O)CCCOc1cccc3c1C(=O)N(C1CCC(=O)NC1=O)C3=O)C2` (centres unmarked) [Compound D32, 4-(4-(6-(2,6-dimethoxy-4-(2-methyl-1-oxo-1,2-dihydro-2,7-naphthyridin-4-yl)benzyl)-2,6-diazaspiro[3.3]heptan-2-yl)-4-oxobutoxy)-2-(2,6-dioxopiperidin-3-yl)isoindoline-1,3-dione], in experiment [1], the IC50 was < 10 nM. Further, the DC50 in experiment [2] lay within 10 to 100 nM.
As for `COc1cc(-c2cn(C)c(=O)c3cnccc23)cc(OC)c1CN1CCC12CN(C(=O)CCOCCOc1cccc3c1C(=O)N(C1CCC(=O)NC1=O)C3=O)C2` (centres unmarked) [Compound D86], the values for the IC50 in experiment [1] and in experiment [2] were 10 to 100 nM and 100 to 1000 nM, respectively.
On to `COc1cc(-c2cn(C)c(=O)c3cnccc23)cc(OC)c1CN(C)CC(=O)NCCCC(=O)NC12CC(Nc3cccc4c3C(=O)N(C3CCC(=O)NC3=O)C4=O)(C1)C2` (centres unmarked) [Compound D71, 4-(2-((2,6-dimethoxy-4-(2-methyl-1-oxo-1,2-dihydro-2,7-naphthyridin-4-yl)benzyl) (methyl)amino)acetamido)-N-(3-((2-(2,6-dioxopiperidin-3-yl)-1,3-dioxoisoindolin-4-yl)amino)bicycle[1.1.1]pentan-1-yl)butanamide], for which the IC50 in experiment [1] was < 10 nM. For the same compound, the DC50 in experiment [2] was < 10 nM.
`COc1cc(-c2cn(C)c(=O)c3cnccc23)cc(OC)c1CN(C)C1CC2CC1CN2C(=O)CCOCCOc1ccc2c(c1)C(=O)N(C1CCC(=O)NC1=O)C2=O` (centres unmarked) [Compound D171]: the values for the IC50 in experiment [1] and in experiment [2] were 10 to 100 nM and < 10 nM, respectively.
Take `COc1cc(-c2cn(C)c(=O)c3cnccc23)cc(OC)c1CN1CCC2CCN(C(=O)CCOCCOc3cccc4c3C(=O)N(C3CCC(=O)NC3=O)C4=O)CC21` (centres unmarked) [Compound D91]: the 50% inhibitory concentration (IC50) in experiment [1] and in experiment [2] was 10 to 100 nM throughout.
For `COc1cc(-c2cn(C)c(=O)c3cnccc23)cc(OC)c1CN1CCC2(CCN(C(=O)CCOCCOc3cccc4c3C(=O)N(C3CCC(=O)NC3=O)C4=O)CC2)C1` (centres unmarked) [Compound D89], the IC50 in experiment [1] and in experiment [2] was < 10 nM each time.
As to `COc1cc(-c2cn(C)c(=O)c3cnccc23)cc(OC)c1CN1CC2(CC(NC(=O)CCOCCOc3ccc4c(c3)C(=O)N(C3CCC(=O)NC3=O)C4=O)C2)C1` (centres unmarked) [Compound D101], the IC50 in experiment [1] was < 10 nM. Moreover, in experiment [2], the DC50 fell in the range of 100 to 1000 nM.
As for `COc1cc(-c2cn(C)c(=O)c3cnccc23)cc(OC)c1CN1CCC(C2CCN(C(=O)CCOCCOc3cccc4c3C(=O)N(C3CCC(=O)NC3=O)C4=O)C2)CC1` (centres unmarked) [Compound D96], in experiment [1], the half-maximal inhibitory concentration (IC50) is < 10 nM. In experiment [2], the DC50 was in the range of 10 to 100 nM.
Taken in the same sequence, the figures for `COc1cc(-c2cn(C)c(=O)c3cnccc23)cc(OC)c1CN1CCC2(C[C@@H]2NC(=O)CCOCCOc2cccc3c2C(=O)N(C2CCC(=O)NC2=O)C3=O)C1` (some centres unmarked) [Compound D112] were < 10 nM and 100 to 1000 nM.
In the case of `COc1cc(-c2cn(C)c(=O)c3cnccc23)cc(OC)c1CN1CC2C1CCN2C(=O)CCOCCOc1cccc2c1C(=O)N(C1CCC(=O)NC1=O)C2=O` (centres unmarked) [Compound D113], the IC50 in experiment [1] and in experiment [2] was < 10 nM throughout.
As for `COc1cc(-c2cn(C)c(=O)c3cnccc23)cc(OC)c1CN1CC(C(=O)N(C)CCCCCCCCNc2cccc3c2C(=O)N(C2CCC(=O)NC2=O)C3=O)C1` (centres unmarked) [Compound D14, 1-[[2,6-dimethoxy-4-(2-methyl-1-oxo-1,2-dihydro-2,7-naphthyridin-4-yl)phenyl]methyl]-N-(8-[[2-(2,6-dioxopiperidin-3-yl)-1,3-dioxo-2,3-dihydro-1H-isoindol-4-yl]amino]octyl)-N-methylazetidine-3-carboxamide], the IC50 in experiment [1] and in experiment [2] was < 10 nM in each case.
For the compound `COc1cc(-c2cn(C)c(=O)c3cnccc23)cc(OC)c1CN1CCC12CCN(C(=O)CCOCCOc1ccc3c(c1)C(=O)N(C1CCC(=O)NC1=O)C3=O)C2` (centres unmarked) [Compound D127], the IC50 in experiment [1] is < 10 nM. The DC50 in experiment [2] was 100 to 1000 nM.
Take `COc1cc(-c2cn(C)c(=O)c3cnccc23)cc(OC)c1CN1CCC(C2CCN(C(=O)CCOCCOc3ccc4c(c3)C(=O)N(C3CCC(=O)NC3=O)C4=O)C2)CC1` (centres unmarked) [Compound D129]: the half-inhibitory concentration (IC50) in experiment [1] and in experiment [2] was < 10 nM in each case.
Regarding `COc1cc(-c2cn(C)c(=O)c3cnccc23)cc(OC)c1CN(C)CC12CC(NC(=O)CCOCCOCCNc3cccc4c3C(=O)N(C3CCC(=O)NC3=O)C4=O)(C1)C2` (centres unmarked) [Compound D68, N-[3-[([[2,6-dimethoxy-4-(2-methyl-1-oxo-2,7-naphthyridin-4-yl)phenyl]methyl](methyl)amino)methyl]bicyclo[1.1.1]pentan-1-yl]-3-[2-(2-[[2-(2,6-dioxopiperidin-3-yl)-1,3-dioxoisoindol-4-yl]amino]ethoxy)ethoxy]propanamide formic acid], in experiment [1], the IC50 was < 10 nM. Moreover, the DC50 in experiment [2] is 100 to 1000 nM.
Regarding `COc1cc(-c2cn(C)c(=O)c3cnccc23)cc(OC)c1CN1CCC2(CC1)CN(C(=O)CCOCCOc1ccc3c(c1)C(=O)N(C1CCC(=O)NC1=O)C3=O)C2` (centres unmarked) [Compound D119], the half-inhibitory concentration (IC50) in experiment [1] was < 10 nM. Besides, the DC50 in experiment [2] is 10 to 100 nM.

These data come from patent US11414416B1, “Compounds and uses thereof” (Foghorn Therapeutics Inc., priority 2019, dated 2022).
